Source: patent US20220002307A1, “FGFR4 INHIBITOR AND USE THEREOF” (BETTA PHARMACEUTICALS CO., LTD, priority 2018, published 2022)

How the values were obtained:
FGFR1 = FGFR1 (Homo sapiens, UniProt P11362); assay: Kinase assay (mobility shift assay), FGFR1; format: biochemical; conditions: compound and enzyme incubated for 60 mins
Procedure: [The source words this procedure for another target and reports this target under the same test.] (§1) The effect of the compounds of the present invention on the activity of tyrosine kinase FGFR4 was evaluated with in vitro kinase detection experiment. The mobility shift assay was used in the experiment, and a fluorescently labeled polypeptide was used as the substrate, the substrate was transformed into a product under the action of the enzyme in the reaction system, and its charge has also changed accordingly. This method can use the difference between the charge of the substrate and the product to separate them, and then detect them separately.
(§2) DMSO solution of compound (300 μM) was diluted to a 100-fold final concentration of DMSO solution in a 384-well plate, 3-fold dilution, 250 nL of the compound with 100-fold final concentration was transferred to the target plate OptiPlate-384F by a dispenser Echo 550. The final concentration of the compound were 3000 nM, 1000 nM, 333.3 nM, 111.1 nM, 37.04 nM, 12.35 nM, 4.115 nM, 1.372 nM, 0.4572 nM, 0.1524 nM, the compound and the enzyme were incubated for 60 mins,
(§3) Prepared 1× kinase buffer, used the 1× kinase buffer to prepare 2.5 fold final concentration of kinase solution, 10 μL of 2.5 fold final concentration kinase solution was added to the compound well and the positive control well respectively, and 10 μL of 1× kinase buffer was added to the negative control well. After centrifugation, the reaction plate was shaken and mixed and incubated at room temperature for 60 mins, a mixture of 25/15 fold final concentration of adenosine triphosphate (ATP) and kinase substrate 22 was prepared with 1× kinase buffer. 15 μL of 25/15 fold final concentration of ATP and substrate mixed solution was added to start the reaction, 384-well plate was centrifuged, mixed, and then incubated at room temperature for 30 minutes, 30 μL of the stop detection solution was added to stop the kinase reaction, and the conversion rate was readed with Caliper EZ Reader after centrifugation and mixing;
(§4) wherein: Conversion %_sample was the conversion rate of the sample; Conversion %_min was the average value of the negative control well, which represent the conversion rate of the well without enzyme activity, Conversion %_max was the average value of the positive control well, which represent the conversion rate of the well without compound inhibition.
(§5) Take the log value of the concentration as the X axis, the percentage inhibition rate as the Y axis, and use GraphPad Prism's log(inhibitor) vs. response-Variable slope (four parameters) of the analysis software to fit the dose-response curve to obtain the IC50 value of each compound on the enzyme. The formula is as follows: Y=Bottom+(Top−Bottom)/(1+10^((Log IC50−X)*HillSlope)).

tyrosine kinase FGFR4 = tyrosine kinase FGFR4 (Homo sapiens, UniProt P22455); assay: Kinase assay (mobility shift assay), FGFR4; format: biochemical; conditions: compound and enzyme incubated for 60 mins
Procedure: as §1, §2, §3, §4, §5

[1] = test system: human liver cancer cells Hep3B cells; assay: Cell proliferation assay (CellTiter-Glo); format: cell-based; conditions: 96 hrs incubation, CTG detection, read-out: IC50(nM) of the compound on Hep3B cells
Source text: In vitro cell assay was used to measure the effects of the compound of the present invention on the proliferation of human liver cancer cells Hep3B cells. The CELL TITER-GLO (CTG) luminescent was used as detection method in the assay, which can detect the number of living cells by quantitatively determining ATP. Because ATP participates in a variety of enzymatic reactions in organisms, it is an indicator of the metabolism of living cells, and its content directly reflects the number and cell state of cells, during the experiment, add CellTiter-Glo™ reagent to the cell culture medium to measure the luminescence, the luminescence value is directly proportional to the amount of ATP, and ATP is positively related to the number of living cells, so cell viability can be inspected by detecting the ATP content.
Take a bottle of Hep3B cells in logarithmic growth phase, the cells were counted after digestion and resuspension, and then were adjusted the cell density and seeded at 180 μL per well (1500 cells/well) into a 96-well plate, the plate was incubated for 24 hrs in 37° C. 5% CO2 incubator;
The 600 μM test substance dissolved in DMSO was diluted with DMSO in a 1:3 ratio to a 200-fold final concentration solution, then the cell culture medium was diluted 20 fold (10×), and 20 μL of the compound solution was added to the 96 wells containing cells in the plate, the final concentration of the compound from high to low was 3000 nM, 1000 nM, 333.3 nM, 111.1 nM, 37.04 nM, 12.35 nM, 4.115 nM, 1.372 nM, 0.4572 nM, and the well plate was placed in a 37° C. 5% CO2 incubator for 96 hrs;
After 96 hrs of incubation, 60 μL of CellTiter-Glo® Luminescent Cell Viability Assay solution was added to each well, gently shaked for 2 mins, continued incubating for 10 mins at room temperature, and the luminescence value of each well on the multifunctional microplate reader was readed.
Calculated the inhibition rate base on the luminous value,
Inhibition rate %=(blank group value−administration group value)/(blank group value−apoptosis group value)*100
The log value of the concentration was used as the X axis, and the percentage inhibition rate was used as the Y axis. Log (inhibitor) vs. response-Variable slope (four parameters) of GraphPad Prism's was used to fit the dose-response curve, and the IC50 of the compound to inhibit cell proliferation was calculated.

[2] = test system: human hepatocarcinoma cells Hep3B; assay: Xenograft tumor model; format: in vivo; conditions: for inhibitory rate on tumor volume growth of Hep3B (TGI): BID×14; for inhibitory rate of tumor weight growth (TGI): BID×14, tumor weight after the last dose; for body weight (routine determination of toxicity): during the entire experiment, at the treatment doses
Procedure: BALB/c nu/nu female mice were inoculated subcutaneously in the right anterior scapula of 5×10^6 human hepatocarcinoma cells Hep3B, and the volume ratio of cell suspension to matrigel was 1:1 (0.2/mL/mouse). The mice were grouped according to tumor size until the average tumor volume was 158 mm^3. The treatment group was given a test compound solution prepared with an appropriate solvent, and the solvent control group was given a blank solvent. During the treatment, the tumor volume was measured twice a week, and the tumor weight was measured after the last dose to determine the compound activity. The tumor growth inhibition rate (%, TGI) was calculated by comparing the tumor volume and weight of the treatment group and the solvent control group. Body weight measurement, as a routine determination of toxicity, has the same frequency as the tumor volume measurement.

Chain of tyrosine kinase FGFR4 (P22455 22-802): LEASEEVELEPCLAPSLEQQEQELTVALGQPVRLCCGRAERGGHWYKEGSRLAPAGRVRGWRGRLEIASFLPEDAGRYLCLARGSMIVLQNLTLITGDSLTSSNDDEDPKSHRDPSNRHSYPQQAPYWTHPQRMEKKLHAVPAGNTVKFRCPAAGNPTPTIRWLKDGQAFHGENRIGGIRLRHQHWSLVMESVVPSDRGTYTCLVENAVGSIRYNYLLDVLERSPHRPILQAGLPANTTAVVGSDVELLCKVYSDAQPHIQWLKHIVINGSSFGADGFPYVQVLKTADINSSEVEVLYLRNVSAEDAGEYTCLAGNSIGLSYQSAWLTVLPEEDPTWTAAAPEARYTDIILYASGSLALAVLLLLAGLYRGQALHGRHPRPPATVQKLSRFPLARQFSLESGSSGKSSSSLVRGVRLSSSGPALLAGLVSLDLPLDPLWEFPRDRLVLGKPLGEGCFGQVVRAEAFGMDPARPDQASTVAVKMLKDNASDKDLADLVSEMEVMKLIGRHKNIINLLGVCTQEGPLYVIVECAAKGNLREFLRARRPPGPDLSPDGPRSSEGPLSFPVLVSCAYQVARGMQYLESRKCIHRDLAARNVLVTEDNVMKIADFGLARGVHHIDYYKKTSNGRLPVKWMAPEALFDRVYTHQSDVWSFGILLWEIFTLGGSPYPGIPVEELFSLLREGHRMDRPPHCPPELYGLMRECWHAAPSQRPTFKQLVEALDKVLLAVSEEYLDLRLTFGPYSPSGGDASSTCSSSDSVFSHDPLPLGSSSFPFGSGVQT
Chain of FGFR1 (P11362 22-822): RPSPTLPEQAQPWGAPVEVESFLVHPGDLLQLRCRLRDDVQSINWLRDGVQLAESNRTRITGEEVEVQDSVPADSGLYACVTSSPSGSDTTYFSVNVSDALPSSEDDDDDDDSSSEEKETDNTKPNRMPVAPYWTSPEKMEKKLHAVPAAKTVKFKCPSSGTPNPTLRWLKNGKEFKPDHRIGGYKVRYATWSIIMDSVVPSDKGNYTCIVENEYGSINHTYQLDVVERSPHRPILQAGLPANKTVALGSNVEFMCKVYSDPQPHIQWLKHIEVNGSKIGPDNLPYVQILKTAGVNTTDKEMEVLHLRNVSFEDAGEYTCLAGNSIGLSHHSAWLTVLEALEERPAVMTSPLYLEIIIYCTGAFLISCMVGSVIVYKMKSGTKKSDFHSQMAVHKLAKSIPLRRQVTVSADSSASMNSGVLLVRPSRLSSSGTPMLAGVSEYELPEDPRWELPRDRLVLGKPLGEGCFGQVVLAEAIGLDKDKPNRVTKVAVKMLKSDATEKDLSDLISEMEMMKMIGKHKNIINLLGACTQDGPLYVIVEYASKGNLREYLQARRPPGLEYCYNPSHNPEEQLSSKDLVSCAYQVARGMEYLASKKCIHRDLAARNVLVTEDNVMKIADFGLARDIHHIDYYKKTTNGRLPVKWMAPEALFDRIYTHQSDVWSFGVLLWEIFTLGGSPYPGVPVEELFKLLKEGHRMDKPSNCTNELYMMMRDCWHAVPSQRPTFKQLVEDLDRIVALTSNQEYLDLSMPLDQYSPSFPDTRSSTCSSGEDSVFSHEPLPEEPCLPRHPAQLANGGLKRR

SMILES | IC50 (FGFR1) | IC50 (tyrosine kinase FGFR4) | IC50 [1] | further results
C=CC(=O)N[C@H]1CCOC[C@H]1Nc1ncc2cc(-c3c(Cl)c(OC)cc(OC)c3Cl)ccc2n1 [BLU554, reference compound] | 1480 nM | 13 nM | 62.7 nM | 
C=CC(=O)Nc1cc(N2CCC(N3CCOCC3)CC2)ccc1Nc1ncc2c(n1)-c1cccnc1N(c1c(Cl)c(OC)cc(OC)c1Cl)C2 [Compound 1, N-(2-((6-(2,6-dichloro-3,5-dimethoxyphenyl)-5,6-dihydropyrimido[5,4-c][1,8]naphthyridin-2-yl)amino)-5-(4-morpholinopiperidin-1-yl)phenyl)acrylamide] |  | 9.4 nM | 6.9 nM | 
C=CC(=O)N[C@H]1CCOC[C@H]1Nc1ncc2c(n1)-c1cccnc1N(c1c(Cl)c(OC)cc(OC)c1Cl)C2 [Compound 2, N-((3S,4S)-3-((6-(2,6-dichloro-3,5-dimethoxyphenyl)-5,6-dihydropyrimido[5,4-c][1,8]naphthyridin-2-yl)amino)tetrahydro-2H-pyran-4-yl)acrylamide] | 912 nM | 10 nM |  | 
C=CC(=O)N[C@H]1CCOC[C@H]1Nc1ncc2c(=O)n(-c3c(Cl)c(OC)cc(OC)c3Cl)c3ncccc3c2n1 [Compound 3, N-((3S,4S)-3-((6-(2,6-dichloro-3,5-dimethoxyphenyl)-5-oxo-5,6-dihydropyrimido[5,4-c][1,8]naphthyridin-2-yl)amino)tetrahydro-2H-pyran-4-yl)acrylamide] |  |  | > 3000 nM | 
C=CC(=O)N[C@H]1CCOC[C@H]1Nc1ncc2c(n1)-c1cc(F)cnc1N(c1c(Cl)c(OC)cc(OC)c1Cl)C2 [Compound 11, N-((3S,4S)-3-((6-(2,6-dichloro-3,5-dimethoxyphenyl)-9-fluoro-5,6-dihydropyrimido[5,4-c][1,8]naphthyridin-2-yl)amino)tetrahydro-2H-pyran-4-yl)acrylamide] | 1530 nM | 1.8 nM | 10.6 nM | 
C=CC(=O)N[C@H]1CCOC[C@H]1Nc1ncc2c(n1)-c1cc(C)cnc1N(c1c(Cl)c(OC)cc(OC)c1Cl)C2 [Compound 13, N-((3S,4S)-3-((6-(2,6-dichloro-3,5-dimethoxyphenyl)-9-methyl-5,6-dihydropyrimido[5,4-c][1,8]naphthyridin-2-yl)amino)tetrahydro-2H-pyran-4-yl)acrylamide] | 367 nM | 1 nM | 5.1 nM | inhibitory rate on tumor volume growth of Hep3B (TGI) ([2]; 50 mg/kg): 73.02%; inhibitory rate of tumor weight growth (TGI) ([2]; 50 mg/kg): 84.76%; inhibitory rate on tumor volume growth of Hep3B (TGI) ([2]; 100 mg/kg): 86.26%; inhibitory rate of tumor weight growth (TGI) ([2]; 100 mg/kg): 92.27%; inhibitory rate on tumor volume growth of Hep3B (TGI) ([2]; 200 mg/kg): 90.26%; inhibitory rate of tumor weight growth (TGI) ([2]; 200 mg/kg): 98.15%; body weight (routine determination of toxicity) [2]: did not show obvious weight losses
C=CC(=O)N[C@H]1CCOC[C@H]1Nc1ncc2c(n1)-c1cc(C)cnc1N(c1cc(OC)cc(OC)c1Cl)C2 [Compound 14, N-((3S,4S)-3-((6-(2-chloro-3,5-dimethoxyphenyl)-9-methyl-5,6-dihydropyrimido[5,4-c][1,8]naphthyridin-2-yl)amino)tetrahydro-2H-pyran-4-yl)acrylamide] | 1440 nM | 2.6 nM | 18.7 nM | 
C=CC(=O)N[C@H]1CCOC[C@H]1Nc1ncc2c(n1)-c1ccc(C)nc1N(c1c(Cl)c(OC)cc(OC)c1Cl)C2 [Compound 15, N-((3S,4S)-3-((6-(2,6-dichloro-3,5-dimethoxyphenyl)-8-methyl-5,6-dihydropyrimido[5,4-c][1,8]naphthyridin-2-yl)amino)tetrahydro-2H-pyran-4-yl)acrylamide] | 1000 nM | 5.2 nM |  | 
C=CC(=O)N[C@H]1CCOC[C@H]1Nc1ncc2c(n1)-c1cc(C(F)(F)F)cnc1N(c1c(Cl)c(OC)cc(OC)c1Cl)C2 [Compound 16, N-((3S,4S)-3-((6-(2,6-dichloro-3,5-dimethoxyphenyl)-9-(trifluoromethyl)-5,6-dihydropyrimido[5,4-c][1,8]naphthyridin-2-yl)amino)tetrahydro-2H-pyran-4-yl)acrylamide] | 166 nM | 3.6 nM | 14.5 nM | inhibitory rate on tumor volume growth of Hep3B (TGI) ([2]; 50 mg/kg): 78.37%; inhibitory rate of tumor weight growth (TGI) ([2]; 50 mg/kg): 83.85%; body weight (routine determination of toxicity) [2]: did not show obvious weight losses
C=CC(=O)N[C@H]1CCOC[C@H]1Nc1ncc2c(n1)-c1cc(Cl)cnc1N(c1c(Cl)c(OC)cc(OC)c1Cl)C2 [Compound 28, N-((3S,4S)-3-((9-chloro-6-(2,6-dichloro-3,5-dimethoxyphenyl)-5,6-dihydropyrimido[5,4-c][1,8]naphthyridin-2-yl)amino)tetrahydro-2H-pyran-4-yl)acrylamide] | 741 nM | 1.8 nM | 9.9 nM | 
C=CC(=O)N[C@H]1CCOC[C@H]1Nc1ncc2cc(-c3c(Cl)c(OC)cc(OC)c3Cl)c3nncn3c2n1 [Compound 33, N-((3S,4S)-3-((6-(2,6-dichloro-3,5-dimethoxyphenyl)-[1,2,4]triazolo[4′,3′:1,6]pyrido[2,3-d]pyrimidin-2-yl)amino)tetrahydro-2H-pyran-4-yl)acrylamide] |  |  | 524 nM | 
C=CC(=O)NC1CCOCC1Nc1ncc2c(=O)n(-c3c(Cl)c(OC)cc(OC)c3Cl)c3ncc(Cl)cc3c2n1 (stereo not shown) [Compound 34, N-(3-((9-chloro-6-(2,6-dichloro-3,5-dimethoxyphenyl)-5-oxo-5,6-dihydropyrimido[5,4-c][1,8]naphthyridin-2-yl)amino)tetrahydro-2H-pyran-4-yl)acrylamide] |  |  | 1030 nM | 
